Target: T1, Fatty-acid amide hydrolase 1 (Mus musculus, UniProt O08914)
T1 sequence (O08914 whole entry): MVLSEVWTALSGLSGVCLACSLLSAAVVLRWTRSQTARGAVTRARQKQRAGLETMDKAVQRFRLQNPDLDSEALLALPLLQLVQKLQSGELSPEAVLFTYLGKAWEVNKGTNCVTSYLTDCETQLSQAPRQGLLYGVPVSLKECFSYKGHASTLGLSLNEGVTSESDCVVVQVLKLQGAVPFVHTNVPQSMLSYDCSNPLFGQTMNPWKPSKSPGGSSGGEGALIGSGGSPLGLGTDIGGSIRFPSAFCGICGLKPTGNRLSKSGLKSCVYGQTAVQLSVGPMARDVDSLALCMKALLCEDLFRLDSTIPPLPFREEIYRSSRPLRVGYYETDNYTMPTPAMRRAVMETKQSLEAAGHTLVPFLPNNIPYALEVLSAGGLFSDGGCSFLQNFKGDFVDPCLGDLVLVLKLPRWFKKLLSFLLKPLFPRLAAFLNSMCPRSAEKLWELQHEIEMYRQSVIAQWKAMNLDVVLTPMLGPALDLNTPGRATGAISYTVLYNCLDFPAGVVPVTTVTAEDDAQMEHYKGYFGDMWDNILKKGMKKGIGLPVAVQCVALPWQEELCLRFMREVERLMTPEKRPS
Assay: In Vitro Competitive Activity-Based Protein Profiling: Proteomes (mouse brain membrane fraction or cell lysates) (50 μL, 1.0 mg/mL total protein concentration) were preincubated with varying concentrations of inhibitors at 37° C. After 30 min, FP¿Rh (1.0 μL, 50 μM in DMSO) was added and the mixture was incubated for another 30 min at 37° C. Reactions were quenched with SDS loading buffer (50 μL-4×) and run on SDS-PAGE. Following gel imaging, serine hydrolase activity was determined by measuring fluorescent intensity of gel bands corresponding to MAGL, ABHD6 and FAAH using ImageJ 1.43u software.

For O=C(OC(C(F)(F)F)C(F)(F)F)N1CCC2(CCCN2Cc2ccc(OCCN3CCOCC3)cc2)CC1, the IC50 was over 1000 nM.
